# Measurements reported in patent US20250092401A1, “COMBINATION THERAPY FOR TREATING HEPATITIS B VIRUS INFECTIONS” (GLAXOSMITHKLINE INTELLECTUAL PROPERTY DEVELOPMENT LIMITED, priority 2022, published 2025).
# “And” between values parts separate entries of the source, which are not always exact repeats. Identical values can stand only once. Like-named read-outs stand apart in the source and are kept apart here.
# Columns and labels:
# AAV-HBV [1] = experiment: AAV-HBV mouse model, mono-treatment; type: in vivo, male C57BL/6 mice; conditions: for HBsAg reduction: within one week of treatment, sustained
# Procedure: After 28 days of infection with AAV-HBV, mono-treatment of the infected male C57BL/6 mice with either Compound A or bepirovirsen was initiated. […] HBsAg reduction for the 3 and 30 mg/kg Compound A dose groups was close to 1 log and 1 log, respectively, within one week of treatment and reduction levels were sustained throughout the duration of the treatment period. […] The maximum observed reduction in HBeAg was 0.5 log at 30 mg/kg Compound A. There was a small reduction (0.26 to 0.40 log) in HBV DNA at the 3 and 30 mg/kg Compound A dose levels when compared to the combined vehicle group. […]
# HBV HBsAg [2] = experiment: HBsAg reduction in HBV infected primary human hepatocytes (ELISA); type: cell-based; conditions: Hepatitis B virus, Hepatocyte
# Procedure: The potency (pIC50) of Compound A for reduction of HBV HBsAg was investigated in primary human hepatocytes (PHH) from three donors. HBV infected PHH samples were treated with Compound A for 21 days and secreted HBsAg was measured using an ELISA assay to determine the % inhibition and average potency of the replicates (two per PHH donor).
# (§1) The antiviral activity of Compound A was evaluated in in vitro HBV systems: (1) HepAD38, a hepatoma cell line with inducible expression of HBV, (2) primary human hepatocytes (PHHs) infected with HBV, and in vivo in infected male C57BL/6 mice with AAV-HBV. Overall there is a correlation between in vitro potency (HepAD38 & PHHs) and AAV-HBV in vivo model HBsAg inhibition.
# HBV HBsAg [3] = experiment: HBsAg reduction in HepAD38 cell line (HBsAg ELISA); type: cell-based, hepatitis B virus (HBV); conditions: Hepatitis B virus; for EC50: HePAD38, 168 h, read-out: HBsAg (EC50)
# Procedure: HepAD38 cells were maintained in collagen-coated flasks in cell culture medium (DMEM/F12 containing 10% fetal bovine serum (FBS), GlutaMax-1, penicillin/streptomycin, non-essential amino acids, Na pyruvate, 250 μg/mL geneticin, and 1 μg/mL doxycycline). Compound solutions were prepared in DMSO and compounds were serially diluted for final concentrations of 4000, 1000, 250, 62.5, 15.6, 3.91, 0.977, 0.244, 0.061, and 0.015 nM. The cells were then trypsinized and the cells were plated at 10,000 cells per well. Plates were incubated at 37° C., 5% CO2 for 4 days. Media was replaced with new media with compound treatment. The plates were then incubated at 37° C., 5% CO2 for an additional 3 days for a total treatment time of 7 days. For antiviral response, HBsAg was measured using the HBsAg ELISA kit (International Immuno-diagnostics) with instructions provided. 100 μL of cell media samples was used for ELISA. The absorbance was read on the SPECTRAMAX 384 plate reader (Molecular Devices) at 450 nm. For cell toxicity, the cells were used for CELLTITER-GLO Luminescent Cell Viability Assay reagent (Promega). The luminescence was read on Envision Multilabel Reader (Perkin Elmer). The data was analyzed compared to the DMSO control.
# % inhibition=(1−(unknown/high control))*100
# The average % inhibition values from duplicate assay plates were then plotted in GraphPad Prism to determine one EC value: Four-parameter logistic curve with equation Y=Bottom+(Top-Bottom)/(1+10^((Log EC50−X)*Hillslope))
# as §1
# [4] = Toxicity evaluation incl. nerve toxicity, 28 days of dosing, rats; type: in vivo; conditions: 28 days of dosing followed by 6 week off dose period
# Procedure: (§2) Studies were conducted to evaluate toxicity, including additional endpoints investigating nerve toxicity of Compound A after 28 days of dosing followed by a 6 week off dose period in rats and monkeys.
# PAPD5 = PAPD5 (Homo sapiens, UniProt Q8NDF8); experiment: PAPD5 A15 RNA SPA biochemical assay
# Procedure: (§3) Dose-response studies were conducted for Compound A and RG7834 in the PAPD5 and PAPD7 A15 RNA SPA formats. Four different batches of Compound A and two different batches of RG7834 were used in both assays. Reactions contained 5 uM ATP, 0.0025 uCi/uL 3H-ATP, 50 nM A15 RNA, 10 nM enzyme in assay buffer (20 mM Tris 7.5, 3 mM CHAPS, 0.05% dBSA, 10 mM MgCl2, 1 mM DTT, 25 mM KCl). Reaction product was detected using SPA bead mix, final concentrations were 1 mg/mL PEI-PS, 1.25 mM ATP, 11.25 mM EDTA. End point signal detection correlated with slopes of reaction time courses. Curve fitting was performed using 4-parameter fitting in ActivityBase software.
# PAPD7 = PAPD7 (Homo sapiens, UniProt Q5XG87); experiment: PAPD7 A15 RNA SPA biochemical assay; conditions: 10 nM enzyme, 5 uM ATP, 50 nM A15 RNA; read-out: average pIC50 PAPD7 (converted)
# Procedure: as §3
# AAV-HBV [5] = experiment: AAV-HBV mouse model, sequential treatment; type: in vivo, male C57BL/6 mice; conditions: 30 mg/kg Compound A alone
# Excerpt: After 35 days of infection with AAV-HBV, sequential treatment of the infected male C57BL/6 mice began first with Compound A followed by bepirovirsen.
# […], reductions in HBsAg was observed, reaching a maximum reduction of over 1 log and nearly 2 logs, respectively, by the second week. This reduction was statistically significant when compared to the combined vehicle group.
# [6] = tested on: primary human hepatocytes (PHH); experiment: Visual examination for cell toxicity in PHH; type: cell-based; conditions: HBV infected PHH, 21 days treatment
# [7] = Toxicity evaluation incl. nerve toxicity, 28 days of dosing, monkeys; type: in vivo; conditions: 28 days of dosing followed by 6 week off dose period
# Procedure: as §2
# [8] = preclinical; terminated in Phase 1 clinical trials due to toxicity; cited from earlier work
# Sequence of PAPD5 (Q8NDF8 whole entry): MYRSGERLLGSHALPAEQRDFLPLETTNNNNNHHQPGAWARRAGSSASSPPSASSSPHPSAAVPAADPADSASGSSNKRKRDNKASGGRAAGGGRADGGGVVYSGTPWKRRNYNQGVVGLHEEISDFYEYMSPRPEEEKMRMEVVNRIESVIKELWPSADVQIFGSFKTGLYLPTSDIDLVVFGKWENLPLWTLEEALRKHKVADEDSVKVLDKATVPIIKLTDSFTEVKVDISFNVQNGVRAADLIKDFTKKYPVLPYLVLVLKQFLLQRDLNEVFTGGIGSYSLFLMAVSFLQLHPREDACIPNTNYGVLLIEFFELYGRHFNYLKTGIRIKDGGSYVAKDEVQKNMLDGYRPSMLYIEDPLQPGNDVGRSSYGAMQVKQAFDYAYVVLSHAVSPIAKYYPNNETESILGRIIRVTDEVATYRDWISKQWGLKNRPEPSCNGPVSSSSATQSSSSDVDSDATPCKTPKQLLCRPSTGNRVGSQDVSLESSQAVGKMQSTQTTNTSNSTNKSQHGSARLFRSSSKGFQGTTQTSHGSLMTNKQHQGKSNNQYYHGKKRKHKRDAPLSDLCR
# Sequence of PAPD7 (Q5XG87 whole entry): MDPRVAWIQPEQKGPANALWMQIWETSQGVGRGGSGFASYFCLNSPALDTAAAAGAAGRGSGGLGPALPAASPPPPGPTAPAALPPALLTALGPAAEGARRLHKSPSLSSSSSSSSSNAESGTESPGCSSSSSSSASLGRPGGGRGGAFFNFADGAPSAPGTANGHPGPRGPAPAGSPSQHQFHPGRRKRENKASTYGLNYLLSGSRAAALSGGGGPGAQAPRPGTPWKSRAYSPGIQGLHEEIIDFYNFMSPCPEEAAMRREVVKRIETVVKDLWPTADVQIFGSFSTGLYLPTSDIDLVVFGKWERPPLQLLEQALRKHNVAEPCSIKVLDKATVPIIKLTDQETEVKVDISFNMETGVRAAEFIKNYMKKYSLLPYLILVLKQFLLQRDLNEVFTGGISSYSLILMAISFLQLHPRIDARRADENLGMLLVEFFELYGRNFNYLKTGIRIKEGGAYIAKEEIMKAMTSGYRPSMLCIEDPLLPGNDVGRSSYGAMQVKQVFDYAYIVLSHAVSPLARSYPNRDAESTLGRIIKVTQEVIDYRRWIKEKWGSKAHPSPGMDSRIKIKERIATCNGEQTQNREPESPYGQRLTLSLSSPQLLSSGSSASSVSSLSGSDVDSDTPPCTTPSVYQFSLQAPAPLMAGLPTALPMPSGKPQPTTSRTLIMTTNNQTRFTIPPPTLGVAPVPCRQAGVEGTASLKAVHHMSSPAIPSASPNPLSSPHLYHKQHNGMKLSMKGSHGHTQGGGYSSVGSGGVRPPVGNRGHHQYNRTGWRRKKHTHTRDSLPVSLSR
compound,measurement,setting,value
COCCCOc1cc2c(nc1Cl)-c1cc(=O)c(C(=O)O)cn1[C@H]1[C@@H]2CCC1(C)C [Compound A],reduction in HBsAg,"AAV-HBV [1]; Compound A 0.3 mg/kg, over the course of treatment",minimal reduction in HBsAg
same,HBsAg reduction compared to the combined vehicle group,AAV-HBV [1]; Compound A 3 mg/kg or 30 mg/kg,statistically significant HBsAg reduction
same,HBsAg reduction,AAV-HBV [1]; Compound A 3 mg/kg,~1 log
same,maximum observed reduction in HBeAg,AAV-HBV [1]; Compound A 30 mg/kg,0.5 log
same,HBsAg reduction,AAV-HBV [1]; Compound A 30 mg/kg,1 log
same,HBsAg levels off-treatment,"AAV-HBV [1]; Compound A, following one week off-treatment",rebounded to baseline
same,IC50,AAV-HBV [1]; Mus musculus,5.8e-05 µg/mL and 0.13 nM
same,IC90,"AAV-HBV [1]; Mus musculus, read-out: Calculated IC90",0.522 ng/mL
same,effect on levels of HBeAg,"AAV-HBV [1]; during treatment with Compound A, stabilized after day 7, rebounded within one week after end",dose dependent reduction
same,IC50,HBV HBsAg [2],0.00095 µg/mL and 2.19 nM
same,IC50,"HBV HBsAg [2]; 504 h, read-out: average pIC50 for reduction of HBV HBsAg (converted)",0.832 nM
same,IC90,HBV HBsAg [2]; read-out: Calculated IC90,8.55 ng/mL
same,IC50,HBV HBsAg [3]; HePAD38,0.00056 µg/mL and 1.3 nM
same,EC50,HBV HBsAg [3],0.3 nM
same,IC90,"HBV HBsAg [3]; HePAD38, read-out: Calculated IC90",5.04 ng/mL
same,no adverse effect dose,[4],No adverse effect doses were established
same,IC50,"PAPD5; 10 nM enzyme, 5 uM ATP, 50 nM A15 RNA, read-out: average pIC50 PAPD5 (converted)",12.6 nM
same,more potent than RG7834 by,PAPD5; PAPD5 and PAPD7 assays (FIG. 2),> 0.5 log
same,IC50,PAPD7,20 nM
same,HBsAg off-treatment,AAV-HBV [5]; within one week off-treatment,rebounded to baseline
same,reduction in HBsAg,"AAV-HBV [5]; within one week, stable up to 28 days, statistically significant",~1 log
same,cell toxicity (visual examination),[6],no detected sign of cell toxicity
same,no adverse effect dose,[7],No adverse effect doses were established
"Cc1cc2c(cc1OCC1COC1)CC1(CCC1)n1cc(C(=O)O)c(=O)cc1-2 [Compound B, reference compound]",EC50,HBV HBsAg [3],3 nM
"COCCCOc1cc2c(cc1OC)-c1cc(=O)c(C(=O)O)cn1[C@H](C(C)C)C2 [RG7834, reference compound]",no adverse effect dose,[8],no adverse effect dose could not be established
same,EC50,HBV HBsAg [3],2 nM
